# Columns and labels:
# [1] = system: hyperoxia-exposed BPD mouse model; experiment: BPD mouse model: bronchoalveolar lavage fluid (BALF) analysis; type: in vivo; details: vs BPD group
# Source text: For the hyperoxia experiment, newborn pups were exposed to 100% hyperoxia (P0), along with their mothers, in cages in an airtight Plexiglas chamber (OxyCycler; Biospherix, Redfield, NY, USA) as described previously by the present inventors (Syed, Das et al., 2017, Leary, Das et al. 2019, Das, Acharya et al. 2020, relevant portions incorporated herein) for 4 consecutive days (till P4) and removed to RA on P5 to be recovered till P14, so as to emulate the human BPD condition. All pups were sacrificed on P14 for further experimental analyses. The pups without any hyperoxia exposure served as the corresponding RA (normoxia) controls.
# (§1) Bronchoalveolar lavage fluid (BALF) Analysis. Pups were sacrificed on PN14, and the trachea was cannulated with a small-caliber needle by instilling PBS endotracheally at […] pressure for 15 minutes. Two volumes of 300 μL of cold 1×PBS were instilled, gently aspirated, and pooled. Samples were centrifuged at 1000×g for 10 minutes at 4° C. The supernatant was collected, and total protein was quantified using the Pierce™ BCA Protein Assay Kit (Fisher Scientific Co, Houston, TX). The total cell count was done using the TC20 cell counter (BioRad, Hercules, CA). Similar method was followed for analyzing the protein concentration in BAL fluid collected from preterm lambs.
# [2] = system: hyperoxia-exposed BPD mouse model; experiment: BPD mouse model: western blot of lung homogenates; type: in vivo
# Procedure: Western Blot Analysis. Western blot analyses for TLR4 (Cell Signaling Technology, Danvers, MA; 1:1000), Ang2 (1:500; Sigma, St. Louis, MO), TGFβ, NFkB, TNFα, IL-10, IL-1(3, IL-4, Vegf, eNos, Vegf-D, BmpRII, Vinculin (1:500; SantaCruz, Dallas, TX), were performed, as previously described (Leary, Das et al. 2019), by loading 30 μg of lung protein, followed by immunoblotting with the above antibodies and visualizing with Odyssey infrared imaging system (LI-COR Biosciences, Lincoln, NE). Densitometric quantification was done using ImageJ after normalizing with Vinculin, the loading control housekeeping protein.
# pre-term lamb BPD model [3] = experiment: Pre-term lamb BPD model: BAL fluid protein, VEGF, ICAM-1; type: in vivo; details: for VEGF concentrations in BAL fluid: vs vehicle after 10 days
# Procedure: A total 9 lambs were used for this study. One dose of Curosurf was given intratracheally to the PT lamb just after birth. Randomized doses of compound AVR-48 (8) (0, 0.1, 0.3, 1.0 and 3.0 mg/kg) were administered intravenously every 12 hr after the initial dose that will be given at 6 hr after delivery to n=2-4 lambs via slow intravenous injection. The beginning treatment at 6 hr post-delivery is selected to represent the human case where neonatologists attempt to allow an infant to breath without mechanical ventilation, if possible, and then begin invasive respiratory support as necessary. Whole blood was drawn from PT lambs at the time of delivery (“pre-dose”), immediately after dosing (IAD), at 15, 30, 45, and 60 min, and at 2, 4, 8, 12, 24, 48, 72, and 96 hr after the initial dose. Plasma extractions and bioanalysis of compound AVR-48 (8) were performed using a qualified bioanalysis method already developed by us. The PK parameters were calculated following both non-Compartmental Pharmacokinetic Modeling and population Pharmacokinetic Modeling as described by Roberts et al previously (Roberts, Stockmann et al. 2016). Blood was collected every 15 min for the first 90 min of postnatal life, followed by every 3 hours for 12 hours and then spaced at 1.5 d, 2.5 d, 3.5 d, 6.5 d, and 9.5 d for analysis of cytokines (Visconti, Senthamaraikannan et al. 2018) and VEGF levels (Albertine, Dahl et al. 2010). The blood samples also were analyzed for hematology and liver enzymes. After 6-7 d of mechanical ventilation, the lambs will be weaned from mechanical ventillation and weaned to non-invasive support for 3 d to ascertain longer-term outcome (Dahl, Bowen et al. 2018). Terminally, the PT lambs were euthanized after 10 days and their heart/lungs and brain were removed. Ex vivo BAL of the right cranial lobe (it has its own bronchus, pulmonary artery and vein) was done for similar analyses. Tracheal aspirates were collected according to the protocol for cytokines, BAL protein, ICAM-1 and VEGF. The spleen was collected to analyze immune cell population, using FACS.
# as §1
# pre-term lamb BPD model [4] = experiment: Pre-term lamb BPD model: plasma cytokines; type: in vivo
# TLR4 = biological target: T1, TLR4 (Homo sapiens, UniProt O00206); experiment: TLR4 assay: unbound TLR4 ELISA in PMA-stimulated THP-1 cell lysates; type: binding; details: THP-1 human monocyte cells
# T1 construct: Cell lysates were prepared, total protein was quantified and treated with different concentrations; host or cells: THP-1 cells stimulated with PMA for 48 h, then lysed
# Procedure: FIG. 26A, TLR4 assay: 1×10^5 THP cells (ATCC) were seeded in 24 well plates and stimulated with phorbol myristyl actetate (PMA, 200 ng/mL) for 48 h. Cell lysates were prepared, total protein was quantified and treated with different concentrations (4, 16, 62.5 and 250 μM) of the AVR-48 for 2 h. ELISA was performed after to assess unbound TLR4 following manufacturer's instruction (Raybiotech). TLR4 IC50 of the AVR-48 was calculated using GraphPad Prism7.04.
# hPBMC = experiment: Secreted IL-10 and LPS induced TNF-α in hPBMC by ELISA; type: cell-based, human
# Procedure: FIG. 26 C, Pretreatment (24 h) of AVR-48 to hPBMC followed by 6h of treatment with LPS (25 ng/ml) decreased the secreted TNF-α production in hPBMC cell supernatants. N=3.**p<0.01, ***p<0.001. One-way ANOVA.
# [5] = system: human lung alveolar type I epithelial cells (AT1); experiment: TNF-α and nitric oxide in human lung alveolar type I epithelial cells co-treated with LPS; type: cell-based
# [6] = system: adult respiratory distress syndrome/acute lung injury (ARDS/ALI) mouse model; details: cited from earlier work
# [7] = vs vehicle treated lambs after 10 days
# T1 sequence (O00206 24-839): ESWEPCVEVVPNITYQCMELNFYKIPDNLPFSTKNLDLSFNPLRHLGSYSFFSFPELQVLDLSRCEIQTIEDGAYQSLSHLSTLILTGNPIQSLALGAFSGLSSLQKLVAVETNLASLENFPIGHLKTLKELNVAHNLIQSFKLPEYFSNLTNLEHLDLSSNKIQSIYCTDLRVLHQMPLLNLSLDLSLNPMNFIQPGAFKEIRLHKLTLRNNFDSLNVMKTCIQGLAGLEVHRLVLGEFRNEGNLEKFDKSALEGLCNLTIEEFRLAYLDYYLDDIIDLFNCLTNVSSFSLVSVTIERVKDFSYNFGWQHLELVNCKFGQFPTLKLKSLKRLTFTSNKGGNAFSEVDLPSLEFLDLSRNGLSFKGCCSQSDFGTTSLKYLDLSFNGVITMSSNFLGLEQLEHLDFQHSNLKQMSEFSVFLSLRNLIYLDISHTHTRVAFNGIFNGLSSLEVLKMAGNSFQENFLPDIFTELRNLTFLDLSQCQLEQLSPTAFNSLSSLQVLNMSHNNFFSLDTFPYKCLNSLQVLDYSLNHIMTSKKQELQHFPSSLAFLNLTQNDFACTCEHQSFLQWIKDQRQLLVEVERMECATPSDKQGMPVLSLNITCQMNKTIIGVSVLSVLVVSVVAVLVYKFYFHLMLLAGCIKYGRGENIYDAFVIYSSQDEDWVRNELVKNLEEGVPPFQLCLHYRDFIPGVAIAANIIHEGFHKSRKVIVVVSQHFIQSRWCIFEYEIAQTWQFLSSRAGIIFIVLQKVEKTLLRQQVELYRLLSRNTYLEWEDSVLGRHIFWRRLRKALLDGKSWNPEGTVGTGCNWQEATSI
smiles,measurement,setting,value
CC(=O)N[C@@H]1C(Oc2ccc([N+](=O)[O-])cc2)OC(CO)C(O)C1O (some centres unmarked) [AVR-48],total protein content in BALF,[1]; 10 mg/kg IP,decreased
same,total inflammatory cells in BALF,[1]; 10 mg/kg,significantly decreased
same,inflammation in room air animals,[2]; RA+AVR-48 treated group,increased inflammation
same,IL-1β,"[2]; lung homogenates, vs BPD",marked decrease
same,IL-13,"[2]; lung homogenates, vs BPD",marked decrease
same,TNFα,"[2]; lung homogenates, vs BPD",marked decrease
same,nuclear factor kappa B (NFkB),"[2]; lung homogenates, vs BPD",marked decrease
same,Angiopoetin 2 (Ang2),"[2]; lung, vs BPD",significantly decreased
same,Vegf-D protein,"[2]; lung, vs BPD",decreases
same,IL-10,"[2]; lung, vs BPD group",increased
same,Total vascular endothelial growth factor (Vegf),"[2]; lung, vs BPD group",increased considerably
same,bone morphometric protein receptor (BmpR)II,"[2]; lung, vs BPD group",significantly decreased
same,endothelial nitric oxide synthase (eNOS),"[2]; lung, vs BPD group",significantly decreased
same,IL-4,"[2]; lungs, vs BPD group",decrease
same,TGFβ,"[2]; lungs, vs BPD group",decrease
same,TLR4 expression in the lungs,"[2]; whole lung homogenates, after treatment",increase in the expression of TLR4
same,VEGF concentrations in BAL fluid,pre-term lamb BPD model [3]; high dose (3.0 mg/kg),no effect
same,VEGF concentrations in BAL fluid,pre-term lamb BPD model [3]; low doses,increase
same,ICAM-1 concentrations in BAL fluid,pre-term lamb BPD model [3]; [7],increase
same,total protein concentration in BAL fluid,pre-term lamb BPD model [3]; [7],decreased
same,IL-10 concentration in plasma,"pre-term lamb BPD model [4]; early time points (1-4 days), 2/d for 7 days, vs vehicle",significantly decreased
same,IL-6 concentration in plasma,pre-term lamb BPD model [4]; [7],significantly decreased
same,binding to TLR4,TLR4,binds to TLR4
same,binding to TLR4,TLR4; listed as 8,bind TLR4
same,secreted TNF-α production,hPBMC; 24 h pretreatment followed by 6 h LPS (25 ng/ml),decreased
same,secreted IL-10 levels,"hPBMC; hPBMC supernatant, 24 h post treatment",dose dependently increased
same,nitric oxide (NO) production,[5]; co-treated with LPS,decreased
same,TNF-α production,"[5]; co-treated with LPS, ELISA",decreased
same,IL-10 level,[5]; epithelial cells,No significant level
same,IL-β level,[5]; epithelial cells,No significant level
same,efficacy dose,"[6]; IV, Shah, Das et al. 2021",10 mg/kg/dose
same,severe lung inflammation,"[6]; LPS-, hyperoxia- and CLP-induced ARDS in adult mice",decreases severe lung inflammation
